Assay results from BindingDB's records for doi:10.1016/s0960-894x(03)00628-0 (Wyeth Research, 2003).

Test: Inhibition of Src protein tyrosine kinase

COCCOc1cc2nc3ncnc(Nc4cc(OC)c(Cl)cc4Cl)c3cc2cc1OC [(2,4-Dichloro-5-methoxy-phenyl)-[7-methoxy-8-(2-methoxy-ethoxy)-pyrimido[4,5-b]quinolin-4-yl]-amine]
IC50: > 10 µM
